Results: US20110281802A1, “COMPOSITION FOR TREATMENT AND PREVENTION OF HAIR LOSS AND PREMATURE GRAYING OF HAIR” (Immudiagnostik AG, priority 2007, published 2011)
Where no end group is shown, it is not given here.

What was measured:
Assay type in all cases: cell-based
[1] = test system: human anagen VI hair follicles; assay: Hair shaft elongation of organ-cultured hair follicles, assay #1 (culture HF 429)
Protocol: (§1) Human anagen VI hair follicles were isolated from scalp skin obtained from three different individuals undergoing routine face-lift surgery. All experiments were performed according to Helsinki guidelines.
(§2) Hair follicles were isolated as described (Philpott MP et al, Human hair growth in vitro; J Cell Science 1990, 97(Pt 3):463-71). Isolated HFs were maintained in supplemented, serum-free Williams E medium (Biochrom, Cambridge, UK) supplemented with 2 mMol/L L-glutamine (Invitrogen, Paisley, UK), 10 ng/mL hydrocortisone (Sigma-Aldrich, Taufkirchen, Germany), 10 μg/mL insulin (Sigma-Aldrich), and 1% antibiotic/antimycotic mixture (Gibco, Karlsruhe, Germany). Hair follicles were placed in a 24-well plate with 500 μL medium (day 0) and incubated in a CO2-incubator (5% CO2, 37° C.) over night without any treatment. The next day (day 1) medium was exchanged and test substance was added to each well (5 μL of stock solution was added to 495 μL culture medium). The medium or medium with test substance was changed every 48 hours.
(§3) Assay #1 Culture HF429: Hair follicles were grown in the wells of a microtiter plate (3 follicles per well) and treated for 9 days with culture medium and test substance as indicated in FIG. 1. Thereafter, elongation, melanogenesis and hair cycle stage were determined.
(§4) Hair shaft length measurements were performed every second day on individual hair follicles using a binocular microscope with an eyepiece measuring reticule. The length of the follicle was defined as the distance between the base of the bulb and the cut end of the hair fibre (Philpott MP et al, Human hair growth in vitro; J Cell Science 1990, 97(Pt 3):463-71).
(§5) All data were analysed by two-tailed unpaired t-test (SPSS analysis software SPSS Inc., Chicago, USA). For determination of elongation, two outliers at top and bottom end of value range were eliminated; with the measurement of melanogenesis one outlier at both, top and bottom range, was eliminated. Results are given as mean value and standard error of measurement (SEM).

[2] = test system: human anagen VI hair follicles; assay: Melanogenesis, Fontana Masson staining measured by Image J, assay #1; details: for Mean relative darkening of the groups (measured by image J), Mean: 9 days, dark=small index number, light=high index number
Protocol: as §3
Fontana Masson staining was performed at the end of the culture period and photos taken of snap frozen sections. The photos were analysed (Image J, public domain, developed at the National Institutes of Health, USA) by measuring the density of two squares, consisting of 150×150 dots, placed over the darkest areas on both sides of the dermal papilla. For Fontana-Masson staining, fixed sections were treated in darkness for 40 minutes with a solution containing 10% silver nitrate (Merck & Co., Inc., Whitehouse Station, N.J., USA; CatNo 1.01512.0100), following by a development in solution containing 5% sodium thiosulphate (Merck & Co., Inc.; CatNo 1.06512.2500) for 1 minute and multiple washings in distilled water for 3 minutes. Counterstaining with 0.5% Neutralrot (Chroma Muenster, Germany, CatNo 2E038). Then dehydration in xylol and covering with Eukitt (O. Kindler GmbH, Freiburg, Germany; CatNo E115).
as §5
Micro-dissected anagen VI hair follicles were treated as above described. At the end of the culture period Fontana Masson staining was performed and photos were taken of the snap frozen sections. The pictures were analysed by measuring the darkness (brightness) of two squares, consisting of 150×150 dots, placed over the darkest areas on both sides of the dermal papilla (dark=small index number, light=high index number). The shading of the different groups was compared to each other and the results were analysed using Student's t-test. The results are shown below in Table 5 and FIG. 7.

human hair follicles = assay: Hair cycle staging of cultured hair follicles (assays #1, #2, #3); details: after 9 days of treatment, both tested individuals, all concentrations
Protocol: (§6) Photodocuments from the Fontana Masson staining were used for hair follicle staging according to previously well-defined morphological criteria (Stenn K S et al, Controls of Hair Follicle Cycling; Physiol Rev 2001, 81:449-494, Müller-Röver S et al, A Comprehensive Guide for the Accurate Classification of Murine Hair Follicles in Distinct Hair Cycle Stages; J Invest Dermatol 2001, 117:3-15). The percentage of hair follicles in anagen, early, mid and late catagen was determined.
as §6, with “determined in the different assays.” for “determined.”

[3] = test system: human anagen hair follicles; assay: Ki67/TUNEL staining, percentage of proliferating cells, assay #3; details: for Mean percentage of Ki67-positive cells: after 9 days of culture, Anagen only; for Percentage of proliferating cells compared to the control (in words): nine days, p<0.05
Protocol: (§7) Assay #3 Culture HF 446: Eight hair follicle cultures (3 follicles/well) were treated with various concentration of test substance as described for 2 days, followed by snap freezing and sectioning of two wells. Six wells were treated up to 9 days, then snap frozen and sectioned. The distribution of test substances and concentrations were as indicted in FIG. 3. The parameter measured after two days was proliferation/apoptosis, and the parameters measured after 9 days were elongation, proportion of cells in proliferation/apoptosis, and hair cycle stage
After nine days, Ki67/TUNEL staining was performed and photos taken.
Proliferating and resting cells as well as cells undergoing apoptosis were counted separately proximal Auber's line. Results are expressed as percentages. For Ki-67/TUNEL staining, fixed sections were incubated for 60 minutes in a solution comprising 30% TdT-enzyme (Chemicon International, Inc., Temecula, Calif., USA; CatNo S1707). 2 mL stop buffer (Chemicon International, Inc.; CatNo S7110), diluted in 68 mL distilled water, was added for 10 minutes to stop the reaction. This was followed by a pre-incubation for 20 minutes with 10% goat serum (Dako Cytomation, CatNo 50114121) and incubation with mouse-anti human Ki-67 antigen (Chemicon International, Inc., CatNo S7110) 1:20 in PBS with 2% goat serum. The fixed section was then washed in PBS, treated with anti-digoxigenin antibody (Chemicon International, Inc., CatNo S7110) (59DI Antibody solution and 5601 Stop solution, 30 minutes) and goat anti-mouse-IgG-rhodamine red (Jackson Immuno Research, Suffolk, UK; CatNo 115-295-062), 1:200 in PBS with 2% goat serum. After washes with PBS, counterstaining with DAPI™ ([…]) (Roche, Basel, Switzerland; CatNo 236276) and further washes with PBS and mounting using Fluoromount (Southern Biotech, Birmingham, Ala., USA; CatNo 0100-01).
After nine days, Ki67/TUNEL staining was performed and photos were taken. In anagen hair follicles, proliferating cells and cells undergoing apoptosis were counted separately proximal Auber's line. Results are expressed as percentages. […] The results are summarized in Table 6 and FIG. 9 showing the mean percentage of Ki6 7 positive cells with SEM

[4] = test system: human anagen VI hair follicles; assay: Hair shaft elongation of organ-cultured hair follicles, assay #3 (culture HF 446); details: for Rate of hair growth compared with control (in words): p<0.05
Protocol: as §1, §2, §7, §4, §5

thymulin = assay: Thymulin staining of GH-treated hair follicles

“Thymosin alpha-1 (SDAAVDTSSEITTKDLKEKKEVVEEAEN; ends and bridges not checked; UniProt P06454 2-29, looked up) [TA1, 28aa thymic peptide which modulates lymphocyte differentiation]” was tested. Which “Mean elongation in percent compared to day 0” value (“Mean elongation in percent” below) ([1]; 100 ng/mL, Day 0) did it give?
Its value is 0.00%.

And the “Mean elongation in percent” value ([1]; 100 ng/mL, Day 1)?
The value was 16.71%.

And the “Mean elongation in percent” value ([1]; 100 ng/mL, Day 3)?
Its value is 34.54%.

And the “Mean elongation in percent” value ([1]; 100 ng/mL, Day 5)?
The value was 51.14%.

And the “Mean elongation in percent” value ([1]; 100 ng/mL, Day 7)?
Its value is 70.11%.

And the “Mean elongation in percent” value ([1]; 100 ng/mL, Day 9)?
The value was 82.55%.

What about the “Mean elongation in percent” value ([1]; 1000 ng/mL, Day 0) of the same substance?
Its value is 0.00%.

What about the “Mean elongation in percent” value ([1]; 1000 ng/mL, Day 1) of the same substance?
Its value is 15.41%.

And the “Mean elongation in percent” value ([1]; 1000 ng/mL, Day 3)?
The value was 34.74%.

What about the “Mean elongation in percent” value ([1]; 1000 ng/mL, Day 5) of the same substance?
The value was 50.66%.

What about the “Mean elongation in percent” value ([1]; 1000 ng/mL, Day 7) of the same substance?
The value was 66.20%.

And the “Mean elongation in percent” value ([1]; 1000 ng/mL, Day 9)?
The value was 75.26%.

And the “Mean relative darkening of the groups (measured by image J), Mean” value ([2]; 100 ng/mL)?
Its value is 81.01.

And the “Mean relative darkening of the groups (measured by image J), Mean” value ([2]; 1000 ng/mL)?
The value was 71.61.

What about the “Influence on HF melanogenesis (in words)” value ([2]; quantitative Masson-Fontana histochemistry) of the same substance?
Its value is “did not influence HF melanogenesis”.

What about the “Hair follicles in anagen compared with control (in words)” value (human hair follicles) of the same substance?
Its value is “more hair follicles in anagen”.

And the “Mean percentage of Ki67-positive cells” value ([3]; 100 ng/mL)?
Its value is 25.15 percentage.

And the “Percentage of proliferating cells compared to the control (in words)” value ([3]; 100 ng/mL)?
The value was “less percentage of cells are proliferating”.

And the “Mean percentage of Ki67-positive cells” value ([3]; 1000 ng/mL)?
The value was 28.05 percentage.

And the “Percentage of proliferating cells compared to the control (in words)” value ([3]; 1000 ng/mL)?
Its value is “less percentage of cells are proliferating”.

And the “Mean elongation in % compared to day 0” value ([4]; 100 ng/mL, Day 0)?
Its value is 0%.

And the “Mean elongation in % compared to day 0” value ([4]; 100 ng/mL, Day 1)?
The value was 6.25%.

What about the “Mean elongation in % compared to day 0” value ([4]; 100 ng/mL, Day 3) of the same substance?
The value was 45.55%.

And the “Mean elongation in % compared to day 0” value ([4]; 100 ng/mL, Day 5)?
The value was 49.52%.

And the “Mean elongation in % compared to day 0” value ([4]; 100 ng/mL, Day 7)?
The value was 61.94%.

And the “Mean elongation in % compared to day 0” value ([4]; 100 ng/mL, Day 9)?
Its value is 69.90%.

And the “Rate of hair growth compared with control (in words)” value ([4]; 100 ng/mL)?
The value was “significantly lowered rate of hair growth”.

And the “Mean elongation in % compared to day 0” value ([4]; 1000 ng/mL, Day 0)?
The value was 0%.

And the “Mean elongation in % compared to day 0” value ([4]; 1000 ng/mL, Day 1)?
The value was 4.00%.

And the “Mean elongation in % compared to day 0” value ([4]; 1000 ng/mL, Day 3)?
The value was 37.95%.

What about the “Mean elongation in % compared to day 0” value ([4]; 1000 ng/mL, Day 5) of the same substance?
The value was 51.77%.

What about the “Mean elongation in % compared to day 0” value ([4]; 1000 ng/mL, Day 7) of the same substance?
The value was 68.36%.

And the “Mean elongation in % compared to day 0” value ([4]; 1000 ng/mL, Day 9)?
The value was 73.33%.

What about the “Rate of hair growth compared with control (in words)” value ([4]; 1000 ng/mL) of the same substance?
Its value is “significantly lowered rate of hair growth”.

How did the “Staining for thymulin compared with the control group (in words)” value (thymulin) turn out when “GH: GH, pituitary hormone that stimulates the secretion of thymulin” was run?
Its value is “stained more intensively for thymulin”.
